Patent US11020449B2, “Use of the GK-1 peptide as an antitumoral and/or antimetastatic agent” (UNIVERSIDAD NACIONAL AUTÓNOMA DE MÉXICO, priority 2016, dated 2021)
Where two headings read alike, the source gives them in different places.

Tests used:
[1] = tested on: 4T1 mammary carcinoma murine model
Description: Lungs, liver, spleen, brain, and primary tumor were dissected from mice in the groups G1 and G2 of the Example of Embodiment 3, to determine the soluble factors present in the tumor microenvironment and in metastatic-associated organs; in order to obtained a protein extract, 5 mg of each tissue were weighed and placed in 300 μL of lysis buffer with protease inhibitors, then were homogenized. Finally, homogenates were centrifuged for 20 min at 13 000 rpm at 4° C., collecting the supernatants (protein extract). Additionally, serum was isolated from blood samples obtained from all mice. Serum and protein extract samples were processed through the Magpix Luminex system (xPonent software) to determine the concentration of cytokines, chemokines, and growth factors.
Data in Tables 2, 3, and 4 correspond to spleen, lung, and brain soluble factor concentrations expressed in pg/mg of protein. A random sample of 6 mice was taken from 5 independent experiments. * P<0.05.

melanoma = details: mouse melanoma model; cited from earlier work
[2] = tested on: TCD4+ and TCD8+ lymphocyte populations; details: cited from earlier work
B16-F10 cells [3] = assay: B16-F10 melanoma model: survival rate and lung tumor foci (four groups); type: in vivo, C57BL/6 mice; details: for survival rate: i.v. weekly, 32 days after implantation
Description: The B16 melanoma model is a lung metastasis model widely used for therapy evaluation. While the term “lung metastasis” is used to characterize this type of model, technically each lung nodule is a primary tumor.
Once the tumor is established (16 days after B16-F10 cells were implanted), mice were separated into four groups: One group was administered with a 0.10 μg/μL GK-1 solution in DMSO (0.05%); another group was administered with 0.10 μg/μL GK-1 solution in ISS; a third group received 100 μL of DMSO (0.05%); and a fourth group was administered with 100 μL of ISS; treatments were applied intravenously in all cases. Treatments were repeated weekly after a palpable tumor appeared and for 32 days after cell implantation.
In order to establish the antitumor effect of GK-1, lungs were dissected from mice in all experimental groups at the day 32 post-implantation, and were fixed in a 10% formaldehyde solution to macroscopically determine the number of tumor foci developed.

influenza vaccine = details: cited from earlier work
4T1 cells [4] = details: day 39, five experiments
Text: It is known that the metastasis sites in the 4T1 cell-induced breast cancer murine model are lungs, brain, liver, and bone [Aslakson C. J. et al., Cancer Res. 1992, 52(6): 1399-405; Mi Z. et al., J Biol Che. 2004; 279(45): 46659-67]. Therefore, to assess the antimetastatic effect of GK-1, lungs, liver, and brain from mice in G1 and G2 groups in the Example of Embodiment 3 were recovered and fixed with a 10% formaldehyde solution to macroscopically identify any metastatic focus on these organs.

4T1 cells [5] = assay: Survival rate in mice with 4T1 breast cancer; type: in vivo, BALB/cAnN mice; details: log-rank test
Description: As used in the following Examples of Embodiment, GK-1 was synthesized under good manufacturing practices by USV, LTD, with a purity higher than 95%. The peptide was intravenously administered to mice at a dose of 0.5 mg/kg.
Four to six weeks-old female and male BALB/cAnN mice were used, with a weight range of 17-23 g for females and 20-27 g for males. All mice were maintained in pathogen-free conditions, as required by the Mexican Official Regulation NOM-062-ZOO-1999.
J. et al., Cancer Res, 1992. […] 279(45):46659-67]. […] The administration was repeated weekly at different times.
To determine the survival rate in mice with breast cancer, 1×10^3 4T1 cells were implanted to 40 BALB/cAnN mice as described in the Example of Embodiment 1; 10 males and 10 females were included in each group (G1 and G2). The administration schedule described in the Example of Embodiment 1 was repeated weekly after a solid tumor development, and for 62 days after cell implant.

B16-F10 cells [6] = details: for Number of tumors developed (Tumors): 10 μg GK-1 i.v. weekly, 32 days, mean±standard deviation
Description: To evaluate the antimetastatic effect of GK-1 in melanoma, 2×10^4 cells of the B16-F10 line were intravenously injected to C57BL/6 mice (n=40; 20 females and 20 males). At day 16 post-implantation, mice were separated into two groups: The G1 group (10 males and 10 females) was intravenously administered with 10 μg of GK-1 dissolved in 100 μL of ISS; the G2 group (10 males, 10 females) was intravenously administered with 100 μL of ISS. Treatments were repeated weekly for 32 days after cell implantation.

4T1 cells [7] = tested on: 4T1 cells
Description: The 4T1 cell line (American Type Culture Collection, Manassas, Va.) was used to induce a neoplasia emulating breast cancer; according to the natural history of the disease, metastasis to lung should be observed [Aslakson C. J. et al., Cancer Res, 1992. 52(6): 1399-405; Mi Z et al., J Biol Chem, 2004. 279(45):46659-67]. The 4T1 cell line was cultured in RPMI medium (Gibco, Grand Island, N.Y.) supplemented with 10% of heat-inactivated fetal bovine serum, 10 U/mL of penicillin, and 100 μg/mL of streptomycin, at 37° C. under 95% relative humidity and 5% CO2. Cultured cells were recovered by trypsinization (0.25% trypsin-0.53 mM EDTA) and washed three times with cold serum-free RPMI medium before subcutaneous implanting. About 1×10^3 4T1 cells were subcutaneously injected in the right mammary gland in BALB/cAnN mice. Tumor induction was determined by the appearance of 1 mm×1 mm solid tumors (palpable tumor), between 18 and 20 days after cell implantation. Once the established tumors reached that size, mice were distributed into two groups: Group 1 (G1) was intravenously administered with a solution of 10 μg of GK-1 in 100 μL of ISS (corresponding to 0.5 mg/kg); Group 2 (G2) was administered with ISS (100 μL) by the same route. The administration was repeated weekly at different times.
All animals were weighed before treatment, and tumor growth was continuously recorded. Tumor volume was calculated according to the following formula [Carlsson G. et al., J Cancer Res Clin Oncol, 1983. 105(1): 20-23]: Volume (mm^3)=πLW^2/6, where L is the largest side and W is the smallest side.
At the day 39 after cell implanting, animals were euthanized in accordance with the guidelines in the United Kingdom Coordinating Committee on Cancer Research (UKCCCR). The primary tumor, spleen, lungs, liver, and brain were dissected. In total, five separate experiments were performed.
As mentioned in the Example of Embodiment 1, once palpable tumors were developed in mice (G1: females X=6, males X=4; G2: females X=6, males X=4 per experiment), tumor volume was determined every third day for 39 days, with electronic Vernier.

4T1 cells [8] = details: superficial zone, day 39
Description: A histological analysis was performed on primary tumors at day 39 post-implantation, to determine the percentage of zones with tissue death in mice from the Example of Embodiment 3. All tumors were manually sectioned and fixed in a 10% formaldehyde solution overnight at 4° C. Then, samples were included in paraffin and processed to obtain 4-μm slices; slices were stained with hematoxylin and eosin (H&E). The upper, middle, and deep tumor sections were analyzed through an Olympus B×50 microscope equipped with a digital camera and using the Infinity Analyze software (v6.3.0).

[9] = tested on: dendritic cells (DCs) loaded with the MAGE antigen; details: immunotherapy against murine melanoma; cited from earlier work
[10] = tested on: T cell, macrophage, and dendritic cells; details: in vitro; cited from earlier work

With “G-Y-Y-Y-P-S-D-P-N-T-F-Y-A-P-P-Y-S-A (GYYYPSDPNTFYAPPYSA; tapeworm) [GK-1]” the CCL2 concentration ([1]; Brain) was 3.44E+00 pg/mg of protein, the CCL3 concentration ([1]; Brain) was 1.40E+01 pg/mg of protein and the CXCL9 concentration ([1]; Brain) was 1.44E+02 pg/mg of protein. For the same substance, the GM-CSF concentration ([1]; Brain) was 2.53E+01 pg/mg of protein, the IL-1α concentration ([1]; Brain) was 1.44E+01 pg/mg of protein and the IL-2 concentration ([1]; Brain) was 6.02E+01 pg/mg of protein. The IL-4 concentration ([1]; Brain) was 1.36E+02 pg/mg of protein, the IL-5 concentration ([1]; Brain) was 1.18E+02 pg/mg of protein and the IL-12 concentration ([1]; Brain) was 5.29E+00 pg/mg of protein. The IL-17 concentration ([1]; Brain) was 8.06E+01 pg/mg of protein, the TNF-α concentration ([1]; Brain) was 1.26E+01 pg/mg of protein and the bFGF concentration ([1]; Brain) was 1.16E+04 pg/mg of protein. For the same substance, the CCL2 concentration ([1]; Lung) was 4.71E+01 pg/mg of protein, the CCL3 concentration ([1]; Lung) was 5.36E+01 pg/mg of protein and the CXCL9 concentration ([1]; Lung) was 3.88E+03 pg/mg of protein. For the same substance, the GM-CSF concentration ([1]; Lung) was 4.06E+01 pg/mg of protein, the IL-1α concentration ([1]; Lung) was 1.50E+02 pg/mg of protein and the IL-2 concentration ([1]; Lung) was 6.28E+01 pg/mg of protein. For the same substance, the IL-4 concentration ([1]; Lung) was 1.49E+02 pg/mg of protein, the IL-5 concentration ([1]; Lung) was 2.06E+02 pg/mg of protein and the IL-12 concentration ([1]; Lung) was 3.83E+00 pg/mg of protein. The IL-17 concentration ([1]; Lung) was 6.22E+00 pg/mg of protein, the TNF-α concentration ([1]; Lung) was 3.21E+01 pg/mg of protein and the bFGF concentration ([1]; Lung) was 3.61E+03 pg/mg of protein. The CCL2 concentration ([1]; Spleen) was 1.19E+01 ± 4.41E+00 pg/mg of protein, the CCL3 concentration ([1]; Spleen) was 4.99E+01 ± 1.51E+01 pg/mg of protein and the CXCL9 concentration ([1]; Spleen) was 2.31E+04 ± 1.36E+04 pg/mg of protein. The GM-CSF concentration ([1]; Spleen) was 3.79E+01 ± 1.60E+01 pg/mg of protein, the IL-1α concentration ([1]; Spleen) was 6.28E+02 ± 2.42E+02 pg/mg of protein and the IL-2 concentration ([1]; Spleen) was 6.65E+01 ± 1.05E+01 pg/mg of protein. For the same substance, the IL-4 concentration ([1]; Spleen) was 7.03E+01 ± 9.56E+01 pg/mg of protein, the IL-5 concentration ([1]; Spleen) was 1.65E+02 ± 1.00E+02 pg/mg of protein and the IL-12 concentration ([1]; Spleen) was 8.06E+01 ± 3.61E+01 pg/mg of protein. The IL-17 concentration ([1]; Spleen) was 2.98E+00 ± 3.01E+00 pg/mg of protein, the TNF-α concentration ([1]; Spleen) was 1.00E+02 ± 2.46E+01 pg/mg of protein and the bFGF concentration ([1]; Spleen) was 2.30E+04 ± 3.54E+03 pg/mg of protein. The “cytokine profile in serum or liver samples versus G2” value ([1]; serum, liver) was “no differences were found”, the mean survival (melanoma) was “increased the mean survival” and the primary tumor necrosis (melanoma) was “increased primary tumor necrosis”. The tumor growth rate (melanoma) was “delayed tumor growth rate”, the “proliferation of TCD4+ and TCD8+ lymphocyte populations” value [2] was “increase the proliferation” and the survival rate (B16-F10 cells [3]; GK-1 dissolved in DMSO (0.05%)) was 25%. The survival rate (B16-F10 cells [3]; GK-1 dissolved in ISS) was 57.14%, the “number of tumor foci developed in lungs versus other treatments” value (B16-F10 cells [3]; day 32, GK-1 in DMSO or ISS versus vehicles) was “no statistically significant differences” and the “infiltrate of mononuclear cells to the lung parenchyma” value (influenza vaccine; a few days after subcutaneous administration) was “promotes the infiltrate of mononuclear cells”. The “titer of specific IgG antibodies” value (influenza vaccine; young and senile mice, influenza vaccine adjuvant) was “increasing the titer of specific IgG antibodies”, the “proportion of mice with lung metastatic foci within the 0-20 range” value (4T1 cells [4]) was 67% and the “survival with respect to saline-treated mice (Kaplan-Meyer)” value (4T1 cells [5]) was “significantly increased survival”. For the same substance, the “Distant (tumors at sites other than the lungs: liver, brain, intestine)” value (B16-F10 cells [6]; Females) was 1/10, the “Lung (mice with lung tumors)” value (B16-F10 cells [6]; Females) was 8/10 and the “Number of tumors developed (Tumors)” value (B16-F10 cells [6]; Females) was 62.9 ± 48.1. For the same substance, the “Distant (tumors at sites other than the lungs: liver, brain, intestine)” value (B16-F10 cells [6]; Males) was 0/10, the “Lung (mice with lung tumors)” value (B16-F10 cells [6]; Males) was 8/10 and the “Number of tumors developed (Tumors)” value (B16-F10 cells [6]; Males) was 77.0 ± 37.6. The “antimetastatic effect in melanoma” value (B16-F10 cells [6]; lung tumor foci G1 versus G2) was “ineffective to stop metastasis in melanoma”, the Tumor weight (4T1 cells [7]; Exp 1, day 39) was 0.825 ± 0.391 g and the Tumor weight (4T1 cells [7]; Exp 2, day 39) was 0.991 ± 0.507 g. The Tumor weight (4T1 cells [7]; Exp 3, day 39) was 1.150 ± 0.939 g, the Tumor weight (4T1 cells [7]; Exp 4, day 39) was 1.477 ± 0.889 g and the Tumor weight (4T1 cells [7]; Exp 5, day 39) was 0.587 ± 0.339 g. For the same substance, the Tumor weight (4T1 cells [7]; Total of five experiments, day 39) was 1.044 ± 0.697 g, the “reduction in tumor weight with respect to untreated mice” value (4T1 cells [7]; day 39) was 27.8% and the Tumor weight (4T1 cells [7]; day 39, text, five experiments) was 1.04 ± 0.70 g. The “tumor volume versus untreated mice” value (4T1 cells [7]; every third day for 39 days) was “lower tumor volume than untreated mice, the difference was not statistically significant”, the “area of necrotic-apoptotic cells in primary tumor” value (4T1 cells [8]) was “increase in the area of necrotic-apoptotic cells” and the “activation of MAGE-loaded DCs” value [9] was “increase in the activation of these DCs”. For the same substance, the “immune cell activation (CD80/86, MHC-II expression; IFN-γ, TNF-α, CCL2 secretion)” value [10] was “promoting T cell, macrophage, and dendritic cells activation”.
